Test [1] has as its target T1, SIK3 (Homo sapiens, UniProt Q9Y2K2).
T1 construct: purchased SignalChem S12-11G-100
Description: ADP-Glo kinase assay, SIK3. Format: biochemical. The settings on record: ADP-Glo SIK kinase assay. Put shortly:
(§1)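 ADP-Glo, RT throughout. Enz/substrate + ATP, 120 min; ADP-Glo reagent 40 min (ATP depletion); detection reagent 30 min; luminescence read. Neg ctrl 1% DMSO, pos ctrl 10 μM staurosporine, final concs.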
(In general: ADP-Glo turns the ADP formed in a reaction into a luminescent signal.)

Test [2] has as its target T2, SIK2 (Homo sapiens, UniProt Q9H0K1).
T2 construct: purchased ThermoFisher Scientific PV4792
Description: ADP-Glo kinase assay, SIK2. Format: biochemical. As to conditions: ADP-Glo SIK kinase assay. Put shortly:
as §1

The test system of test [3] is LPS-induced TNFα in monocyte-derived macrophages (MdM). Description: MdM assay: LPS-triggered TNFα (ELISA). Format: cell-based, human. As to conditions: Homo sapiens, Macrophage, 20 h, monocyte-derived macrophages, LPS 200 ng/mL, supernatant after 20 h; read-out: TNFα EC50. Here is the method:
This assay evaluates illustrative compounds of the invention for their inhibition of LPS-induced TNFα and LPS triggered IL-10 secretion in monocyte-derived macrophages.
PBMCs are isolated from human blood samples (buffycoats). The buffy coat is aseptically transferred into a 50 mL Falcon tube, and diluted 1/2 in PBS. Falcon tubes are filled with 20 mL Lymphoprep™, on top of which 25 mL of the buffy coat is carefully added, tubes are centrifuged for 35 min at 400 g in temperature controlled centrifuge, without brake, at 25° C. PBMCs are aspirated from the white interface layer between sample and Lymphoprep™. PBMCs are washed five times in PBS.
PBMCs are centrifuged at 300×g for 10 min and resuspended at a density of 1.0*10^7 cells/80 μL Miltenyi buffer (PBS, pH 7.4, 1% FBS, 2 mM EDTA).
Starting from this point of the protocol all steps are performed on ice. 20 μL of CD14+ micro-beads are added per 1.0*10^7 cells, the tube is mixed and incubated for 15 min in the fridge at 4° C. Cell suspension volume is adjusted to total volume of 100 mL using Miltenyi buffer, mixed gently and subsequently centrifuged for 10 min at 300×g. Supernantant is discarded and cell pellet is resuspended in 12 mL of Miltenyi buffer.
Four LS columns are placed in the MACS Separator (magnet) from Miltenyi Biotec, and are prewet by rinsing with 3 mL of MACS buffer per column. Three mL of cell suspension is added onto the column (max 1*10^8 of labelled cells/column), and columns are subsequently washed 3 times with 3 mL of Miltenyi buffer.
The columns are removed from the magnets, and 5 mL of Miltenyi buffer are added to the column to flush out the CD14+ fraction by pushing the plunger into the column. The flushed fractions are collected in a fresh 50 mL Falcon and volume is adjusted to 30 mL using Miltenyi buffer, cells are centrifuged for 10 min at 300×g. The obtained cell pellet is resuspended in 10 mL RPMI w/o FBS, and cell density is determined using a hematologic analyser (Sysmex XS-500i).
On day 10, MdMs are triggered and compound is added.
A compound dilution plate is made in 100% DMSO by 3-fold dilution of 10 mM stock solution. An intermediate dilution plate (10× final concentration) is made by diluting the compound dilution plate 50-fold in RPMI medium.
Medium is carefully removed from cell plates using multichannel pipette, and replaced by 80 μL fresh medium. 10 μL of the 10× final concentration compound is added to the cells and incubated for 1 hour at 37° C. before addition of trigger. No trigger conditions/trigger conditions are spiked with equal final DMSO concentrations of 0.2% DMSO. 10 μL of 10×LPS (final conc. 200 ng/mL) solution are added to all wells except for the ‘no trigger wells’ where 10 μL medium is added. Supernatant is collected after 2 h (IL-10 determination) and after 20 h (TNFα determination) of LPS triggering.
The plate is then washed once with PBST (PBS+0.05% Tween20) and once with PBS followed by the addition of 100 μL of blocking buffer (1% Bovine Serum Albumin (BSA)−5% Sucrose) and plates are sealed and incubated for at least 4 h at RT. After washing the plate once with PBST and once with PBS, 40 μL of standard or sample are added (TNFα standard curve is prepared using a 1/2 serial dilution starting from […]; dilutions are made in dilution buffer (PBS+1% BSA)). Plates are washed twice with PBST, and once with PBS, after which 35 μL of the detection antibody is added (final concentration 0.25 μg/mL diluted in dilution buffer) and plates are incubated for at least 2 h at RT. Plates are washed twice with PBST, and once with PBS, where after 35 μL of Strep-HRP conjugate (0.5 μg/mL final concentration diluted in dilution buffer) is added. Plates are incubated in the dark, at RT for at least 45 min but no longer than 1 hour. Plates are washed twice with PBST, and once with PBS.
(An ELISA detects its analyte on a solid surface through an enzyme-linked reagent.)

Test [4] addresses T3, SIK1 (Homo sapiens, UniProt P57059).
T3 construct: purchased Carna Biosciences 02-131
Description: ADP-Glo kinase assay, SIK1. Format: biochemical. As to conditions: ADP-Glo SIK kinase assay. Summed up: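 Enzyme–substrate mix was started with ATP and incubated 120 min at RT. ADP formed was quantified by ADP-Glo: 40 min ATP depletion, then 30 min detection reagent converting ADP to ATP for luciferase luminescence, which rises with kinase activity. Controls: 1% DMSO and 10 μM staurosporine (final).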

Each structure is given as a SMILES string.

A word on the IC50: it is the point on the concentration scale where inhibition reaches its midpoint. Low readings indicate inhibition by little substance, high ones a need for much substance. The term EC50 denotes the concentration that produces a half-maximal response.

T3 sequence (P57059 whole entry): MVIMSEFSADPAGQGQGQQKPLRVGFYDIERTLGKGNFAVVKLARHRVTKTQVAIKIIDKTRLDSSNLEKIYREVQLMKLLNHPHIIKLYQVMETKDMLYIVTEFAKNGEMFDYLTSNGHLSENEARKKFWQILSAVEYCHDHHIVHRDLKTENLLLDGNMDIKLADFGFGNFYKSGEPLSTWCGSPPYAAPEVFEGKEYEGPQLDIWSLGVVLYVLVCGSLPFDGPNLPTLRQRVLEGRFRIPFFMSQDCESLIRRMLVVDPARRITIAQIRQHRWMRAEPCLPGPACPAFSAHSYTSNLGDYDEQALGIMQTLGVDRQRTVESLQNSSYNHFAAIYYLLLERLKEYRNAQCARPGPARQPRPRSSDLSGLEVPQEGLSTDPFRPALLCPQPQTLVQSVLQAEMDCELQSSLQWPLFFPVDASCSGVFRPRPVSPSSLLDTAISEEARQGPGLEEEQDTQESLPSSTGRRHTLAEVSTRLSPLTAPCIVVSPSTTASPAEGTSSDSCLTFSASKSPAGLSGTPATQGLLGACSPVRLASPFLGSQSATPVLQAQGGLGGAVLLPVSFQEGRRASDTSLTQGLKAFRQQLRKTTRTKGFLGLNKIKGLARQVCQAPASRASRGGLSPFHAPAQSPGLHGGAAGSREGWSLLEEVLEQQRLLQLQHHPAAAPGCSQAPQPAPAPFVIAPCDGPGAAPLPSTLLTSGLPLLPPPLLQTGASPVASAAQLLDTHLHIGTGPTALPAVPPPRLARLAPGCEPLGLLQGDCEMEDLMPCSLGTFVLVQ
T2 sequence (Q9H0K1 whole entry): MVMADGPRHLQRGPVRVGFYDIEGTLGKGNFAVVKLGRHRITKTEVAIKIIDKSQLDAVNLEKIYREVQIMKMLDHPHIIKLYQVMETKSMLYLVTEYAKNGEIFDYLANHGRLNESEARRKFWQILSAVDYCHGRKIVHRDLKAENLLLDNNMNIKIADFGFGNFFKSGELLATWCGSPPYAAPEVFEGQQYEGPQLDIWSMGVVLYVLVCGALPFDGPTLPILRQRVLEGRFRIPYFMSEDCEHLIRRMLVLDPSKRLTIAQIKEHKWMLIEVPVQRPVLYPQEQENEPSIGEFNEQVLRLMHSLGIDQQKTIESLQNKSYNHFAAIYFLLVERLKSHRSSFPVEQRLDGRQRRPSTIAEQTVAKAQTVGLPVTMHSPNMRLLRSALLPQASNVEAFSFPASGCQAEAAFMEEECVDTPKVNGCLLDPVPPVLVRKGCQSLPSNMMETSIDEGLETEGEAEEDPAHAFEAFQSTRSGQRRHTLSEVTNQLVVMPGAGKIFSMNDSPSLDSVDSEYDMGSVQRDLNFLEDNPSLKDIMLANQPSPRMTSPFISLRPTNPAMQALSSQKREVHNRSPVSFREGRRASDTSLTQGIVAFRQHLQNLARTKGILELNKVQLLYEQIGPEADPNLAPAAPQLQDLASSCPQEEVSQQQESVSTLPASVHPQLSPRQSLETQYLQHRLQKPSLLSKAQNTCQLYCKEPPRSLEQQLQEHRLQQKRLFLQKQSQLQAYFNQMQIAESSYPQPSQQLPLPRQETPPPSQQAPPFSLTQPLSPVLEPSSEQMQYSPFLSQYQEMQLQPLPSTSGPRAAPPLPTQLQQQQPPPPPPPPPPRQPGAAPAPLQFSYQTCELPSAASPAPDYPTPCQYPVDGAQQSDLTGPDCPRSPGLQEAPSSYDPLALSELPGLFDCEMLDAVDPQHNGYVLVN
T1 sequence (Q9Y2K2 whole entry): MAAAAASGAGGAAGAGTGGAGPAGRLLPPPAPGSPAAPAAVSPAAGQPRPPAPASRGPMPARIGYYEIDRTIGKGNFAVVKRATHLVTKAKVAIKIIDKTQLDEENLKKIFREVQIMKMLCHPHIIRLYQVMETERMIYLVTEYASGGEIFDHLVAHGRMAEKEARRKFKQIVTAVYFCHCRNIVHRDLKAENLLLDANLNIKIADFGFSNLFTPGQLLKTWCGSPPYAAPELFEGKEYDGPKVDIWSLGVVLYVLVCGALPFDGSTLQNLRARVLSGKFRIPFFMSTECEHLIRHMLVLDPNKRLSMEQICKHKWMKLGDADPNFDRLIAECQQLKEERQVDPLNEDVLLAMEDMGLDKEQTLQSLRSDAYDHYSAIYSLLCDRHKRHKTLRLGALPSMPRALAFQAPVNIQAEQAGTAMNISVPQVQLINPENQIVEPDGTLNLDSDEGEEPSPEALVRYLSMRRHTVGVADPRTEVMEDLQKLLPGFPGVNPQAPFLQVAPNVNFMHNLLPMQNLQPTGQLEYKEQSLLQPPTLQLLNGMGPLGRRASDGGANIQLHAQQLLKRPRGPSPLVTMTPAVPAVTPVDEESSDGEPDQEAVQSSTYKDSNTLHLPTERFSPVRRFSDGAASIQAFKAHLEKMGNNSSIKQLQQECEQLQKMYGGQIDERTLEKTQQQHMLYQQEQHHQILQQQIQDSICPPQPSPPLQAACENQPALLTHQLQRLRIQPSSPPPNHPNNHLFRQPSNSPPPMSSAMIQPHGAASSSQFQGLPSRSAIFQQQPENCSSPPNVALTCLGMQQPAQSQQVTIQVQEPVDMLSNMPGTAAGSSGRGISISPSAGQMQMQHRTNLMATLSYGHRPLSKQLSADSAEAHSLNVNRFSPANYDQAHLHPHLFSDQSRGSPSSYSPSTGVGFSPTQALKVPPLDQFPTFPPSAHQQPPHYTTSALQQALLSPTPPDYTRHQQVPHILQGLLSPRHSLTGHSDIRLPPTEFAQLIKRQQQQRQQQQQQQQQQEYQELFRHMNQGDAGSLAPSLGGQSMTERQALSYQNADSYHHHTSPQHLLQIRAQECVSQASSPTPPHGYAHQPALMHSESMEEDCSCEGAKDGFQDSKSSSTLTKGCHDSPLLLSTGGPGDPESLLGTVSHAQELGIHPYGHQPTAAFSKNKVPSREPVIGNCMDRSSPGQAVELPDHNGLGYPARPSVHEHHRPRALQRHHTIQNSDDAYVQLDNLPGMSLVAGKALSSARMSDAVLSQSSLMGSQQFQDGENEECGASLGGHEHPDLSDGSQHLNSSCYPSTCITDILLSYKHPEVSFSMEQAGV

As for `COc1cc(-c2cnc3cc(OCCN4CCOCC4)ccn23)cc(OC(F)F)c1C(=O)NCC(F)(F)F` [compound 230, 2-(difluoromethoxy)-6-methoxy-4-[7-(2-morpholinoethoxy)imidazo [1,2-a]pyridin-3-yl]-N-(2,2,2-trifluoroethyl)benzamide], the IC50 in test [1] fell in the range of 0.01 to 10 nM; in test [2], 0.01 to 10 nM; in test [4], 10 to 100 nM. Further, the EC50 in test [3] is 100 to 1000 nM.

With `COc1cc(-c2cnc3cc(OCC(C)N)ccn23)cc(OC(F)F)c1C(=O)NC1CC1` (stereo not drawn) [compound 138, 4-[7-(2-aminopropoxy)imidazo [1,2-a]pyridin-3-yl]-N-cyclopropyl-2-(difluoromethoxy)-6-methoxy-benzamide], the results for the IC50 in test [1], in test [2] and in test [4] were 0.01 to 10 nM, 0.01 to 10 nM and 10 to 100 nM, respectively. Besides, in test [3], the EC50 lay within 1000 to 5000 nM.

Regarding `COc1cc(-c2cnc3cc(OCCN(C(C)C)C(C)C)ccn23)cc(OC(F)F)c1C(=O)NC1CC1` [compound 78, N-cyclopropyl-2-(difluoromethoxy)-4-[7-[2-(diisopropylamino)ethoxy]imidazo[1,2-a]pyridin-3-yl]-6-methoxy-benzamide], the IC50 in test [1] fell in the range of 0.01 to 10 nM; in test [2], 0.01 to 10 nM; in test [4] it was 100 to 500 nM. Further, the EC50 in test [3] fell in the range of 100 to 1000 nM.

As for `COc1cc(-c2cnc3cc(OCCCN4CCOCC4)ccn23)cc(OC(F)F)c1C(=O)NC1CC1` [compound 21, N-cyclopropyl-2-(difluoromethoxy)-6-methoxy-4-[7-(3-morpholinopropoxy)imidazo[1,2-a]pyridin-3-yl]benzamide], the IC50 in test [1] lay in the range of 0.01 to 10 nM; in test [2] it was 0.01 to 10 nM; in test [4], 10 to 100 nM. For the same compound, in test [3], the EC50 lay within 0.1 to 100 nM.

In the case of `COCC1CN(CCOc2ccn3c(-c4cc(OC)c(C(=O)NC5CC5)c(OC(F)F)c4)cnc3c2)CCO1` (stereo not drawn) [compound 158, N-cyclopropyl-2-(difluoromethoxy)-6-methoxy-4-[7-[2-[2-(methoxymethyl)morpholin-4-yl]ethoxy]imidazo[1,2-a]pyridin-3-yl]benzamide], the values for the IC50 in test [1], in test [2] and in test [4] were 0.01 to 10 nM, 0.01 to 10 nM and 10 to 100 nM, respectively. In test [3], the 50% effective concentration (EC50) is 0.1 to 100 nM.

With `COc1cc(-c2cnc3cc(OCc4nccn4C)ccn23)cc(OC(F)F)c1C(=O)NC1CC1` [compound 110, N-cyclopropyl-2-(difluoromethoxy)-6-methoxy-4-[7-[(1-methylimidazol-2-yl)methoxy]imidazo[1,2-a]pyridin-3-yl]benzamide], the IC50 in test [1] was 0.01 to 10 nM; in test [2], 0.01 to 10 nM; in test [4], 100 to 500 nM. In addition, the half-maximal effective concentration (EC50) in test [3] lay in the range of 100 to 1000 nM.

Consider `COc1cc(-c2cnc3cc(OCCCN4CCCCC4)ccn23)cc(OC(F)F)c1C(=O)N[C@H]1CC[C@H]1O` (racemic) [compound 353, 2-(difluoromethoxy)-6-methoxy-4-[7-[3-(1-piperidyl)propoxy]imidazo [1,2-a]pyridin-3-yl]-N-[(1S,2R)-2-hydroxycyclobutyl] benzamide/2-(difluoromethoxy)-N-[(1R,2S)-2-hydroxycyclobutyl]-6-methoxy-4-[7-[3-(1-piperidyl)propoxy]imidazo[1,2-a]pyridin-3-yl]benzamide mixture], for which the results for the IC50 in test [1], in test [2] and in test [4] were 10 to 100 nM, 0.01 to 10 nM and 100 to 500 nM, respectively.

With `COc1cc(-c2cnc3cc(OCCCN4CCC(S(C)(=O)=O)CC4)ccn23)cc(OC(F)F)c1C(=O)NC1CC1` [compound 347, N-cyclopropyl-2-(difluoromethoxy)-6-methoxy-4-[7-[3-(4-methylsulfonyl-1-piperidyl)propoxy]imidazo[1,2-a]pyridin-3-yl]benzamide], the 50% inhibitory concentration (IC50) in test [1] fell in the range of 0.01 to 10 nM; in test [2], 0.01 to 10 nM; in test [4], 10 to 100 nM.

As for `COc1cc(-c2cnc3cc(OCC4CCCOC4)ccn23)cc(OC(F)F)c1C(=O)NC1CC1` (stereo not drawn) [compound 59, N-cyclopropyl-2-(difluoromethoxy)-6-methoxy-4-[7-(tetrahydropyran-3-ylmethoxy)imidazo[1,2-a]pyridin-3-yl]benzamide], the IC50 in test [1], in test [2] and in test [4] was 0.01 to 10 nM each time.

For `COc1cc(-c2cnc3cc(OCC4CCC(F)(F)C4)ccn23)cc(OC(F)F)c1C(=O)NC1CC1` (stereo not drawn) [compound 75, N-cyclopropyl-4-[7-[(3,3-difluorocyclopentyl)methoxy]imidazo[1,2-a]pyridin-3-yl]-2-(difluoromethoxy)-6-methoxy-benzamide], the IC50 in test [1], in test [2] and in test [4] was 0.01 to 10 nM in each case.

Regarding `COc1cc(-c2cnc3cc(OCc4ccnn4C)ccn23)cnc1C(=O)NCC(F)(F)F` [compound 262, 3-methoxy-5-[7-[(2-methylpyrazol-3-yl)methoxy]imidazo[1,2-a]pyridin-3-yl]-N-(2,2,2-trifluoroethyl)pyridine-2-carboxamide], the IC50 was 10 to 100 nM in test [1], 100 to 500 nM in test [2] and > 500 nM in test [4].

As to `COc1cc(-c2cnc3cc(OCCN4C5CCC4COC5)ccn23)cc2c1C(=O)N(CC(F)(F)F)CC2` [compound 246, 8-methoxy-6-[7-[2-(3-oxa-8-azabicyclo[3.2.1]octan-8-yl)ethoxy]imidazo[1,2-a]pyridin-3-yl]-2-(2,2,2-trifluoroethyl)-3,4-dihydroisoquinolin-1-one], the results for the IC50 in test [1], in test [2] and in test [4] were 10 to 100 nM, 0.01 to 10 nM and 100 to 500 nM, respectively.

Consider `COc1cc(-c2cnc3cc(OCC(C)(C)N4CCOCC4)ccn23)cc(OC(F)F)c1C(=O)NC1CC1` [compound 11, N-cyclopropyl-2-(difluoromethoxy)-6-methoxy-4-[7-(2-methyl-2-morpholino-propoxy)imidazo[1,2-a]pyridin-3-yl]benzamide], for which the IC50 in test [1] was in the range of 0.01 to 10 nM; in test [2], 10 to 100 nM; in test [4], 100 to 500 nM.

Consider `COc1cc(-c2cnc3cc(OC4CCN(C)CC4)ccn23)cc(OC(F)F)c1C(=O)NC1CC1` [compound 7, N-cyclopropyl-2-(difluoromethoxy)-6-methoxy-4-[7-[(1-methyl-4-piperidyl)oxy]imidazo[1,2-a]pyridin-3-yl]benzamide], for which the values for the IC50 in test [1], in test [2] and in test [4] were 10 to 100 nM, 10 to 100 nM and > 500 nM, respectively.

With `COc1cc(-c2cnc3cc(OCC4(C)COC4)ccn23)cc(OC(F)F)c1C(=O)NC1CC1` [compound 89, N-cyclopropyl-2-(difluoromethoxy)-6-methoxy-4-[7-[(3-methyloxetan-3-yl)methoxy]imidazo[1,2-a]pyridin-3-yl]benzamide], the IC50 lay in the range of 0.01 to 10 nM in test [1], 0.01 to 10 nM in test [2] and 10 to 100 nM in test [4].

Source of the values: US12264156B2, “Compounds and pharmaceutical compositions thereof for the treatment of diseases” (GALAPAGOS NV, priority 2018, dated 2025).
